Experimental data from ChEMBL document CHEMBL1133069, “Highly sensitive and rapid detection of antibody catalysis by luminescent bacteria” (Bioorg Med Chem Lett, 2000).

What was measured:
[1] = Km in bacterium VhM42
[2] = Kcat in bacterium VhM42

Q: What does the source list for `CCCCCCCCC(O)CC(C)=O` (configuration not stated)?
A: Km [1]: 190 µM; k cat [2]: 1.67e-05 s⁻¹
